We go through 15 molecules from article PMC9370530, “Modified Benzoxazole-Based VEGFR-2 Inhibitors and Apoptosis Inducers: Design, Synthesis, and Anti-Proliferative Evaluation” (Molecules, 2022).

SMILES strings stand for the structures.

Assay [1] relates to hepatocellular carcinoma (HepG2). The assay can be described thus: In vitro anti-proliferative MTT assay, HepG2. The conditions noted are these: Homo sapiens, HepG2, 24 h, read-out: IC50 HepG2. A general note: Formazan colour is commonly taken as a measure of viable cells.
Method: (§6) This test was carried out on three different human cancer cell lines: MCF-7, HCT116, and HepG2 using the MTT method [66].
(§7) This test was carried out on three different human cancer cell lines: MCF-7, HCT116, and HepG2, We performed this colorimetric experiment with quantitative assessment of anticancer activity in accordance with the MTT method [1] The assay is based primarily on a biochemical reaction in which mitochondrial succinate dehydrogenase transforms yellow tetrazolium bromide (MTT) to a purple formazan derivative in live cells.
(§8) with 10% foetal bovine serum in general. In a 5 percent CO2 incubator at 37 °C, penicillin (100 units/mL) and streptomycin (100g/mL) were introduced. The cells were seeded at a density of 1.0x10^4 cells/well in a 96-well plate at 37 C for 48 hours under 5% CO2. […] The cells were given varying concentrations of the novel compounds and cultured for 24 hours. Then we add 20 l of MTT in a 5 mg/ml solution and let it sit for 4 hours.
(§9) 100 µl of DMSO was applied to each well to dissolve the purple formazan produced.
(§10) curve for each conc. using Graphpad Prism software (San Diego, CA. USA). The data presented are the mean of at least three separate experiments.
(§11) The IC50 of the selected derivatives were determined against VEGFR-2 kinase with enzyme linked immunosorbent assay (ELISA). We used a human VEGFR-2 ELISA kit. VEGFR-2 specific antibody was seeded on a 96 well microplate and 100 μL of solution of the standard or the tested compound was added. After incubation for 2.5 h. at room temperature and washing, 100 μL of prepared biotin antibody was added. Incubation of the plates for 1 h at room temperature and then washing were carried out before addition of streptavidin solution (100 μL). The mixture was incubated for 1h at room temperature and then washed. After that, 100 μL of tetramethybenzidine (TMB) substrate solution was added before incubation for half an hour at room temperature.
(§12) Finally, 50 μL of the stop solution was added immediately before the reading at 450 nm.
(§13) Percent inhibition was calculated by the comparison of compounds treated to control
Assay [2] has as its system breast cancer (MCF-7). As to the kind of experiment: In vitro anti-proliferative MTT assay, MCF-7. The conditions noted are these: Homo sapiens, MCF7, 24 h, read-out: IC50 MCF-7.
Method: as §6, §7, §8, §9, §10, §11, §12, §13
The target of assay [3] is T1, VEGFR-2 kinase (Homo sapiens, UniProt P35968).
T1 construct: purchased
T1 sequence (P35968 20-1356): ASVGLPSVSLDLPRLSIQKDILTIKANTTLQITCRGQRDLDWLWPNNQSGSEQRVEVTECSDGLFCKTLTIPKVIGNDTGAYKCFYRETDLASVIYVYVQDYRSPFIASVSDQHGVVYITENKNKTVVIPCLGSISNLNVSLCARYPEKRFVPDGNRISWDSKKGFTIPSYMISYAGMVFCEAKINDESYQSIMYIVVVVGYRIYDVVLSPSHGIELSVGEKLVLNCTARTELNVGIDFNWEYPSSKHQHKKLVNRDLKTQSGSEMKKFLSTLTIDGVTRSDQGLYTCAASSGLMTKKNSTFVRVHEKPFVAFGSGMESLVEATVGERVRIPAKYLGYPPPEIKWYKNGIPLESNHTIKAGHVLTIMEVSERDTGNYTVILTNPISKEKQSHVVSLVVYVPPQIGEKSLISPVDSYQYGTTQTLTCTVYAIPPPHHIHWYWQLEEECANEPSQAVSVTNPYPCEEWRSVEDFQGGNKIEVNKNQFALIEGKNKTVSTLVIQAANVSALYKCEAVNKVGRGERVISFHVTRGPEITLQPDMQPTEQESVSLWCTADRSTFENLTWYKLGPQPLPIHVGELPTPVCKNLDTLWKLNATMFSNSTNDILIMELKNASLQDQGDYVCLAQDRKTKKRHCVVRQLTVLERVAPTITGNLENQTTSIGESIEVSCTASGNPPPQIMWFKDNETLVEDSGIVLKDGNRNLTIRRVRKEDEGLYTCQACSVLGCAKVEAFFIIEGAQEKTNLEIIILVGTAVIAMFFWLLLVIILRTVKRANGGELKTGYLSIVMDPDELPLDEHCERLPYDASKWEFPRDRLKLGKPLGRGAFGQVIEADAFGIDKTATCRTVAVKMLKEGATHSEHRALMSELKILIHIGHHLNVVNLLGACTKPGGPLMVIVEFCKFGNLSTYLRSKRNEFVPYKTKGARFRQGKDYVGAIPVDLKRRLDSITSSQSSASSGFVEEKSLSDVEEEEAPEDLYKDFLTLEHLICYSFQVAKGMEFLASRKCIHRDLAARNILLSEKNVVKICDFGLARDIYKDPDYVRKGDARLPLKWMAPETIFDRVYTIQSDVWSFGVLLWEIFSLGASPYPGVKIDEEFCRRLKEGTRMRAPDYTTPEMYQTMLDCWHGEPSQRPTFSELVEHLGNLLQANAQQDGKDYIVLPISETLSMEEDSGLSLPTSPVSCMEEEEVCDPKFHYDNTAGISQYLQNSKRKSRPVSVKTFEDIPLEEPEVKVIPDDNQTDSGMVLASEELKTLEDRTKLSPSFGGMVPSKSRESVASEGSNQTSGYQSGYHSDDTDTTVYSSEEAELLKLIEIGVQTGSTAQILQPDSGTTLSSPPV
The assay can be described thus: In vitro VEGFR-2 kinase inhibitory assay (ELISA kit). Type of assay: biochemical. The conditions noted are these: human VEGFR-2 ELISA kit; median of three experiments.

The test system of assay [4] is colorectal carcinoma (HCT116). As to the kind of experiment: In vitro anti-proliferative MTT assay, HCT116. The conditions noted are these: Homo sapiens, HCT-116, 24 h, read-out: IC50 HCT116.
Method: as §6, §7, §8, §9, §10, §11, §12, §13
Assay [5] relates to TNF-α. As to the kind of experiment: TNF-α level in HepG2 cells by qRT-PCR. Type of assay: cell-based. The conditions noted are these: Homo sapiens, 2.43 µM for 24 h. As to the method:
(§1) The inhibition of these mediators caused apoptosis of tumor cells. Therefore, further investigation was conducted to see how compound 8 affect these cytokines (TNF-α and IL-6). Compound 8d was added to HepG2 cells at a concentration of 2.43 µM for 24 h, then the levels of TNF-α and IL-6 were measured using the qRT-PCR method.
(§2) The effects of 8d on TNF-α and IL-6 were determined using the qRT-PCR technique. The Supplementary data provides further detailed information about the study. […]
(§3) HepG2 cells were cultured according to the methodology described by Wang et al. The cells were planted and cultured for 24 h in six-well plates. Each well had 2 × 10^5 cells in it. Then 10% fetal bovine serum (FBS) was added, and the cells were incubated at 37 °C with 5% CO2.
(§4) The medium was then changed. DMSO (1% v/v) containing 2.43 μM of compound 8d was substituted. Following that, the cells were rinsed in cold phosphate buffered saline. […]
(§5) 1.5. Quantitative Real Time Reverse-Transcriptase PCR (qRT-PCR) technique The effects of compound 8d on the expression of TNF-α and IL-6 were determined using qRT-PCR technique. The quantity of immunomodulatory proteins (TNF-α and IL-6) in control and compound 8d (at the IC50 concentration)-treated HepG2 cells was assessed by qRT-PCR (reference). […]

For assay [6], the system named is IL-6. As to the kind of experiment: IL-6 level in HepG2 cells by qRT-PCR. The following applies: Homo sapiens, 2.43 µM for 24 h. Type of assay: cell-based. How it is done: as §1, §2, §3, §4, §5
For orientation: In qPCR the cycle at which signal appears reflects the starting amount.

For assay [7], the system named is HepG2 cells. The assay can be described thus: HepG2 cell cycle analysis (PI flow cytometry). It counts as cell-based, human. The following applies: 2.43 μM of compound. As to the method:
The most promising candidate, compound 8d, was further evaluated by analyzing its effect on cycle phases of the HepG2 cells. From the results presented in Table 3, it can be noticed that a large percentage (70.23%) of cells treated with 8d was accumulated at the pre-G1 phase compared to the 2.70% reported for control cells. This clearly indicates the ability of compound 8d to inhibit HepG2 cell proliferation efficiently at the pre-G1 phase (Figure 5).
HepG2 Cell Cycle Analysis was performed for compound 8d according to the methodology reported by Wang et al.. The Supplementary data provides further detailed information about the study. […]
as §3
The medium was then changed. DMSO (1% v/v) containing 2.43 μM of compound 8d was substituted. Following that, the cells were rinsed in cold phosphate buffered saline. (PBS), then fixed in 70% ethyl alcohol, washed in PBS, and […]. After that, the DNA fluorochrome propidium iodide (PI) was maintained at […] for 1 5 minutes at 37 °C. A FACS Caliber flow cytometer was used to analyze the samples. […]

The term IC50 denotes the point on the concentration scale where inhibition reaches its midpoint. For `Cc1ccc(NC(=O)c2ccc(NC(=O)CSc3nc4ccccc4o3)cc2)cc1` [Compound 8a, 4-(2-(Benzo[d]oxazol-2-ylthio)acetamido)-N-(p-tolyl)benzamide], the half-inhibitory concentration (IC50) came out at 10.4 ± 0.98 µM in assay [1], 9.49 ± 0.75 µM in assay [2], 0.0579 µM in assay [3] and 10.1 ± 0.95 µM in assay [4].

`Cc1ccc(NC(=O)c2ccc(NC(=O)CSc3nc4cc(Cl)ccc4o3)cc2)cc1` [Compound 8b, 4-(2-((5-Chlorobenzo[d]oxazol-2-yl)thio)acetamido)-N-(p-tolyl)benzamide]: the IC50 in assay [1] came out at 10.4 ± 0.92 µM; in assay [2], 12.4 ± 0.92 µM; in assay [4], 11.6 ± 0.91 µM.

For the molecule `Cc1ccc(NC(=O)c2ccc(NC(=O)CSc3nc4cc(C)ccc4o3)cc2)cc1` [Compound 8c, 4-(2-((5-Methylbenzo[d]oxazol-2-yl)thio)acetamido)-N-(p-tolyl)benzamide], the IC50 is 8.16 ± 0.77 µM in assay [1], 9.15 ± 0.85 µM in assay [2], 1.14 µM in assay [3] and 6.12 ± 0.55 µM in assay [4].

A word on the inhibition: it is the drop in the measured response relative to a control, in per cent. The low end stands for a response near the control, the high end for a response far below the control. In the case of `O=C(CSc1nc2ccccc2o1)Nc1ccc(C(=O)Nc2ccc([N+](=O)[O-])cc2)cc1` [Compound 8d, 4-(2-(Benzo[d]oxazol-2-ylthio)acetamido)-N-(4-nitrophenyl)benzamide], the half-inhibitory concentration (IC50) stood at 2.43 ± 0.16 µM in assay [1], 3.43 ± 0.15 µM in assay [2] and 2.79 ± 0.19 µM in assay [4]. Moreover, the inhibition at 2.43 µM is 90.5% in assay [5] and 92.2% in assay [6]. Moreover, the “%Pre-G1” value in assay [7] (control 2.70) was found to be 70.23%. For the same molecule, the “%G2-M” value in assay [7] (control 19.31) amounted to 19.1%. Also, the “%G0–G1” value in assay [7] (control 39.81) turned out to be 31.1%. Also, the “%S” value in assay [7] (control 40.88) is 49.8%.

As for `O=C(CSc1nc2cc(Cl)ccc2o1)Nc1ccc(C(=O)Nc2ccc([N+](=O)[O-])cc2)cc1` [Compound 8e, 4-(2-((5-Chlorobenzo[d]oxazol-2-yl)thio)acetamido)-N-(4-nitrophenyl) benzamide], the IC50 in assay [1] is 4.51 ± 0.35 µM; in assay [2], 5.69 ± 0.44 µM; in assay [3], 0.0741 µM; in assay [4], 3.29 ± 0.26 µM.

As for `Cc1ccc2oc(SCC(=O)Nc3ccc(C(=O)Nc4ccc([N+](=O)[O-])cc4)cc3)nc2c1` [Compound 8f, 4-(2-((5-Methylbenzo[d]oxazol-2-yl)thio)acetamido)-N-(4-nitrophenyl) benzamide], the IC50 in assay [1] is 4.41 ± 0.35 µM; in assay [2] it was 4.97 ± 0.32 µM; in assay [3], 0.204 µM; in assay [4] it was 4 ± 0.33 µM.

Take `CC(=O)c1ccc(NC(=O)c2ccc(NC(=O)CSc3nc4cc(Cl)ccc4o3)cc2)cc1` [Compound 8g, N-(4-Acetylphenyl)-4-(2-((5-chlorobenzo[d]oxazol-2-yl)thio)acetamido) benzamide]: the IC50 in assay [1] worked out at 8.44 ± 0.65 µM; in assay [2], 12.5 ± 1.1 µM; in assay [4], 10.4 ± 0.92 µM.

On to `CC(=O)c1ccc(NC(=O)c2ccc(NC(=O)CSc3nc4cc(C)ccc4o3)cc2)cc1` [Compound 8h, N-(4-Acetylphenyl)-4-(2-((5-methylbenzo[d]oxazol-2-yl)thio)acetamido) benzamide], for which the IC50 in assay [1] came out at 2.76 ± 0.18 µM; in assay [2], 3.53 ± 0.28 µM; in assay [3], 0.114 µM; in assay [4], 2.94 ± 0.19 µM.

`O=C(CSc1nc2ccccc2o1)Nc1ccc(C(=O)NCc2ccccc2)cc1` [Compound 8i, 4-(2-(Benzo[d]oxazol-2-ylthio)acetamido)-N-benzylbenzamide]: the half-maximal inhibitory concentration (IC50) in assay [1] amounted to 5.92 ± 0.47 µM; in assay [2] it was 10 ± 0.95 µM; in assay [3], 0.317 µM; in assay [4], 8.53 ± 0.77 µM.

In the case of `O=C(CSc1nc2cc(Cl)ccc2o1)Nc1ccc(C(=O)NCc2ccccc2)cc1` [Compound 8j, N-Benzyl-4-(2-((5-chlorobenzo[d]oxazol-2-yl)thio)acetamido)benzamide], the IC50 in assay [1] turned out to be 14.2 ± 1.1 µM; in assay [2], 16.9 ± 1.5 µM; in assay [4], 18.2 ± 1.5 µM.

As to `Cc1ccc2oc(SCC(=O)Nc3ccc(C(=O)NCc4ccccc4)cc3)nc2c1` [Compound 8k, N-Benzyl-4-(2-((5-methylbenzo[d]oxazol-2-yl)thio)acetamido)benzamide], the IC50 in assay [1] was 10.1 ± 0.93 µM; in assay [2], 8.37 ± 0.77 µM; in assay [3], 0.653 µM; in assay [4], 8.09 ± 0.71 µM.

In the case of `O=C(CSc1nc2ccccc2o1)Nc1ccc(C(=O)NCCc2ccccc2)cc1` [Compound 8l, 4-(2-(Benzo[d]oxazol-2-ylthio)acetamido)-N-phenethylbenzamide], the IC50 in assay [1] came out at 11.2 ± 0.95 µM; in assay [2], 12.5 ± 1.05 µM; in assay [4] it was 14.2 ± 1.2 µM.

As for `Cc1ccc2oc(SCC(=O)Nc3ccc(C(=O)NCCc4ccccc4)cc3)nc2c1` [Compound 8m, 4-(2-((5-Methylbenzo[d]oxazol-2-yl)thio)acetamido)-N-phenethylbenzamide], the values for the IC50 in assay [1], in assay [2] and in assay [4] were 28.6 ± 2.1 µM, 25.8 ± 2.1 µM and 16.4 ± 1.3 µM, respectively.

As for `C[C@@H]1C[C@H]2[C@@H]3CCC4=CC(=O)C=C[C@]4(C)[C@@]3(F)[C@@H](O)C[C@]2(C)[C@@]1(O)C(=O)CO` [Dexamethasone, reference compound], the inhibition at 2.43 µM in assay [5] turned out to be 82.5%; in assay [6] it was 93.2%.

For the molecule `CNC(=O)c1cc(Oc2ccc(NC(=O)Nc3ccc(Cl)c(C(F)(F)F)c3)cc2)ccn1` [Sorafenib, reference compound], the IC50 was determined as 3.4 ± 0.25 µM in assay [1] and 5.3 ± 0.44 µM in assay [4].
